Literature values as cited in article PMC6095608 (PLoS ONE, 2018).

System: rats
Conditions: co-administered trimethoprim; cited from earlier work

Question: For `COc1cc(Cc2cnc(N)nc2N)cc(OC)c1OC` [trimethoprim], which “Effect on lamivudine accumulation in the renal cortex” value is on record?
Answer: The value was “did not impair”.
